Reference: paper PMC9021288 (Nature Communications, 2022)
Values joined by “and” are separate entries in the source; they are usually repeats but may differ in a detail not shown here. Identical values can stand only once.

What was measured:
Pharmacokinetics in mice = format: in vivo, male CD1 mice
Method: Subsequently, samples were spun down at 1640 g for 5-10 min at 4 °C within 30 min after collection and plasma was collected. […] Urine was collected following an intravenous dose in both rat and dog, allowing renal clearance to be estimated. Human renal clearance was estimated from dog renal clearance as previously described[40] and other human PK parameters were predicted using allometric scaling and/or in vitro clearance data. PK parameters were calculated by naïve pooled approach using WinNonLin software (Phoenix, version 6.3).

[1] = tested on: P. falciparum NF54 female gametocytes; experiment: Dual gamete formation assay, female; format: cell-based, Plasmodium falciparum; conditions: read-out: IC50 female gametocyte activation
Method: After a 48-h incubation, gamete formation was stimulated by a drop in temperature (from 37 °C to 26 °C), and the addition of xanthurenic acid (2.5 µM). At 20 min after induction, exflagellation was recorded by automated time-lapse microscopy. After data collection, the plate was returned to a 26 °C incubator and incubated for 24 h. Female gamete formation was assessed by live staining with a Cy3-labelled anti-Pfs25 monoclonal antibody (1:2222) and recorded by automated microscopy.

P. falciparum 3D7 = experiment: Parasite reduction rate (PRR) in vitro killing rate assay; format: cell-based, Plasmodium falciparum
Method: The antimalarial killing rate was determined by GlaxoSmithKline (GSK, Tres Cantos, Madrid, Spain) as described previously. […] The number of viable parasites was determined on day 21 and 28 by counting the wells with parasite growth.

For `C[C@@H](CNC(=O)[C@H](O)C(C)(C)CO)NC(=O)c1cc(F)c(F)cc1F` [MMV693183], the “Observed hepatic/ predicted hepatic” value (Pharmacokinetics in mice; Mouse) was < 1.9, the “Observed total-renal = observed hepatic” value (Pharmacokinetics in mice; Mouse) was < 13.4 mL/min/kg and the “Predicted hepatic plasma clearance” value (Pharmacokinetics in mice; Mouse, from in vitro hepatic clearance, Fu,p and B:P) was 7 mL/min/kg and 7.0 mL/min/kg. For the same compound, the Norm. conc i.v. (Pharmacokinetics in mice; Mouse, Time (hrs) 0) was 0 ng/mL, the Norm. conc i.v. (Pharmacokinetics in mice; Mouse, Time (hrs) 0.083333) was 1320 ng/mL and 1393.33 ng/mL and 1330 ng/mL and the Norm. conc i.v. (Pharmacokinetics in mice; Mouse, Time (hrs) 0.25) was 846.667 ng/mL and 920 ng/mL and 863.333 ng/mL. The Norm. conc i.v. (Pharmacokinetics in mice; Mouse, Time (hrs) 0.5) was 636.667 ng/mL and 626.667 ng/mL and 630 ng/mL, the Norm. conc i.v. (Pharmacokinetics in mice; Mouse, Time (hrs) 1) was 324.667 ng/mL and 366.667 ng/mL and 300 ng/mL and the Norm. conc i.v. (Pharmacokinetics in mice; Mouse, Time (hrs) 2) was 132.333 ng/mL and 151 ng/mL and 104 ng/mL. For the same compound, the Norm. conc i.v. (Pharmacokinetics in mice; Mouse, Time (hrs) 4) was 39.3333 ng/mL and 48.3333 ng/mL and 26.9333 ng/mL, the Norm. conc p.o. (Pharmacokinetics in mice; Mouse, Time (hrs) 0) was 0 ng/mL and the Norm. conc p.o. (Pharmacokinetics in mice; Mouse, Time (hrs) 0.25) was 870 ng/mL and 850 ng/mL and 790 ng/mL. The Norm. conc p.o. (Pharmacokinetics in mice; Mouse, Time (hrs) 0.5) was 610 ng/mL and 600 ng/mL and 553.333 ng/mL, the Norm. conc p.o. (Pharmacokinetics in mice; Mouse, Time (hrs) 1) was 333.333 ng/mL and 313.333 ng/mL and 271.333 ng/mL and the Norm. conc p.o. (Pharmacokinetics in mice; Mouse, Time (hrs) 2) was 115 ng/mL and 103.667 ng/mL and 65 ng/mL. The Norm. conc p.o. (Pharmacokinetics in mice; Mouse, Time (hrs) 24) was 0.01333 ng/mL and 0.02 ng/mL, the “AUC0-∞” value (Pharmacokinetics in mice; i.v. 3 mg/kg, mean) was 3764.7 ng·h/mL and the AUClast (Pharmacokinetics in mice; i.v. 3 mg/kg, mean) was 3763.8 ng·h/mL. It also gave a C0 (Pharmacokinetics in mice; i.v. 3 mg/kg, mean) of 5013.7 ng/mL, a Kel (Pharmacokinetics in mice; i.v. 3 mg/kg, mean) of 0.58 h⁻¹ and a Vss_obs (Pharmacokinetics in mice; i.v. 3 mg/kg, mean) of 1.0265 L/kg. For the same compound, the CLtotal (Pharmacokinetics in mice; i.v. 3 mg/kg, mean, 3 mg/kg) was 13.4 mL/min/kg and 13.36 mL/min/kg, the T1/2 (Pharmacokinetics in mice; i.v. 3 mg/kg, mean, 3 mg/kg) was 1.2 h and 1.19 h and the “share of total clearance contributed by the kidney” value (Pharmacokinetics in mice; mice) was 48%. The “clearance contributed by the kidney” value (Pharmacokinetics in mice; mice, total minus predicted hepatic) was 6.4 mL/min/kg, the “%F” value (Pharmacokinetics in mice; p.o. 30 mg/kg, mean) was 70.03% and the “AUC0-∞” value (Pharmacokinetics in mice; p.o. 30 mg/kg, mean) was 26362.9 ng·h/mL. For the same compound, the AUClast (Pharmacokinetics in mice; p.o. 30 mg/kg, mean) was 26362.2 ng·h/mL, the CLtotal (Pharmacokinetics in mice; p.o. 30 mg/kg, mean) was 19.21 mL/min/kg and the Cmax (Pharmacokinetics in mice; p.o. 30 mg/kg, mean) was 25100.0 ng/mL. It also gave a Kel (Pharmacokinetics in mice; p.o. 30 mg/kg, mean) of 0.67 h⁻¹, a T1/2 (Pharmacokinetics in mice; p.o. 30 mg/kg, mean) of 1.05 h and a Tmax (Pharmacokinetics in mice; p.o. 30 mg/kg, mean) of 0.25 h. The IC50 [1] was 12 nM, the “time to parasitemia below the detection limit” value (P. falciparum 3D7; 40 nM (10x IC50)) was ≤ 48 h and the “Average (log parasites +1)” value (P. falciparum 3D7; 24 h) was 0.452. The “Average (log parasites +1)” value (P. falciparum 3D7; 48 h) was 0.0, the “log (parasites +1)” value (P. falciparum 3D7; 48 h) was 0.0 and the parasites (P. falciparum 3D7; 48 h) was 0. For the same compound, the “Average (log parasites +1)” value (P. falciparum 3D7; 72h) was 0.0, the “log (parasites +1)” value (P. falciparum 3D7; 72h) was 0.0 and the parasites (P. falciparum 3D7; 72h) was 0. For the same compound, the “Average (log parasites +1)” value (P. falciparum 3D7; 96h) was 0.0, the “log (parasites +1)” value (P. falciparum 3D7; 96h) was 0.0 and the parasites (P. falciparum 3D7; 96h) was 0. The “Average (log parasites +1)” value (P. falciparum 3D7; 120h) was 0.0, the “log (parasites +1)” value (P. falciparum 3D7; 120h) was 0.0 and the parasites (P. falciparum 3D7; 120h) was 0.
